Patent US11618747B2, “LXR modulators with bicyclic core moiety” (OrsoBio, Inc., priority 2018, dated 2023)
Like-named read-outs stand apart in the source and are kept apart here.

Experiments:
full length (FL) LXRα = target: T1, full length (FL) LXRα (Homo sapiens, UniProt Q13133); assay: LXR Gal4 reporter transient transfection assay (FL-M2H Gal4α); type: cell-based; conditions: HEK293 cells
T1 construct: the full length (FL) proteins of LXRα (amino acids 1-447); NP005684; expressed in transfected cells; host or cells: HEK293
T1 sequence (Q13133 1-447): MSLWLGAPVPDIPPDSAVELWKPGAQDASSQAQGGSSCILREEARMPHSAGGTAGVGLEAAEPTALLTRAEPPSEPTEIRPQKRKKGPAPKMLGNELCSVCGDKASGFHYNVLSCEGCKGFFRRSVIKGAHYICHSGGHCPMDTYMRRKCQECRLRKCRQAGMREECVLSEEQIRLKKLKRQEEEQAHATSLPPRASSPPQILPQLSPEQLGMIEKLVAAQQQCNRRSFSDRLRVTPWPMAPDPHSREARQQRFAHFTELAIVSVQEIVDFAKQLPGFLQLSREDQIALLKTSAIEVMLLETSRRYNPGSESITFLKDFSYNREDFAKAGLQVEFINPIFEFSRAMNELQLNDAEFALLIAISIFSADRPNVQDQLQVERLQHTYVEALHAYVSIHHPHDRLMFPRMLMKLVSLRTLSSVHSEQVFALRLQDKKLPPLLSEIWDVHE
Method in brief: (§1)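 Mammalian two-hybrid in HEK293 cells transiently transfected with NFkB-AD-fused FL or LBD LXR plus GAL4-BD-fused SRC1 or NCoR cofactor domains and GAL4-responsive firefly luciferase reporter, Renilla-normalized. Compound added 4 h post-transfection (≤0.2% DMSO), 16 h incubation, luminescence read.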

full length (FL) LXRβ = target: T2, full length (FL) LXRβ (Homo sapiens, UniProt P55055, DUP175-175); assay: LXR Gal4 reporter transient transfection assay (FL-M2H Gal4β); type: cell-based; conditions: HEK293 cells
T2 construct: the full length (FL) proteins of LXRα (amino acids 1-447); NP005684; NP009052; expressed in transfected cells; host or cells: HEK293
T2 sequence (P55055 with tags, fused parts or gaps DUP175-175): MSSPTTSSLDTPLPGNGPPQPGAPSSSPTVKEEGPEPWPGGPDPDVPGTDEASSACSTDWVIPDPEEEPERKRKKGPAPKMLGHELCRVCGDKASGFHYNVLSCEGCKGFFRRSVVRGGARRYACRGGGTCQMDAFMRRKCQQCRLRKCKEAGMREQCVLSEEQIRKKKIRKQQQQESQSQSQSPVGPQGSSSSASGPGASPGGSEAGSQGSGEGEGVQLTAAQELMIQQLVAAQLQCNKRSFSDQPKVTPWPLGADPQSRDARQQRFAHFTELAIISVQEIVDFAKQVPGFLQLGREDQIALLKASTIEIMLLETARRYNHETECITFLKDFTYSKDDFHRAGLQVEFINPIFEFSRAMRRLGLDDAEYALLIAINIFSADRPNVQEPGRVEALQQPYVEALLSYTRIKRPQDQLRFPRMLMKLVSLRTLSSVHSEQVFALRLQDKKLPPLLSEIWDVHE
Method in brief: as §1

[1] = target: T3, ligand-binding domain (LBD) of LXRα (Homo sapiens, UniProt Q13133); assay: LXR Gal4 reporter transient transfection assay (LBD-M2H Gal4α); type: cell-based; conditions: HEK293 cells
T3 construct: expressed in transfected cells; host or cells: HEK293
T3 sequence (Q13133 155-447): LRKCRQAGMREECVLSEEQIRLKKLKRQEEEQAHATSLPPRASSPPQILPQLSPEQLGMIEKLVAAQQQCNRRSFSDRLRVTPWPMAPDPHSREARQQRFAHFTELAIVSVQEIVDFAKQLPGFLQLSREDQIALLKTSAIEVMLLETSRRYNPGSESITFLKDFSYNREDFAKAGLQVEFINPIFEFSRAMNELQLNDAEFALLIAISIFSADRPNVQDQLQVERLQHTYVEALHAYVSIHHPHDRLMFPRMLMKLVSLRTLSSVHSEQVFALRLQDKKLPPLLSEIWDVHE
Method in brief: as §1

[2] = Pharmacokinetics in mice after single oral dosing (blood/plasma and liver exposure); type: in vivo, mice (C57/bl6/J); conditions: 20 mg/kg single oral dose
Description: The pharmacokinetics of the compounds was assessed in mice after single dosing and oral administrations. Blood/plasma and liver exposure was measured via LC-MS.
The study design was as follows:
Animals: C57/bl6/J (Janvier) males
Diet: standard rodent chow
Animal handling: animals were withdrawn from food at least 12 h before administration
Design: single dose oral administration, n=3 animals per group
Sacrifice: at stated time point (4, 12 or 24 h) after administration
Bioanalytics: LC-MS of liver and blood/plasma samples

[3] = full length LXRα, read-out: FL-M2H Gal4α (EC50 range)
[4] = full length LXRβ, read-out: FL-M2H Gal4β (EC50 range)
[5] = LXRα LBD, read-out: LBD-M2H Gal4α (EC50 range)

| Structure (SMILES) | EC50 (full length (FL) LXRα; [3]) [nM] | EC50 (full length (FL) LXRβ; [4]) [nM] | other results |
| --- | --- | --- | --- |
| O=C(O)c1ccc(-c2cccc(-c3c(-c4c(Cl)cccc4Cl)c4cc(F)ccc4n3S(=O)(=O)c3ccc(C(F)F)cc3)c2)c(Cl)c1 [11/13] | < 100 | < 100 |  |
| CC(=O)NS(=O)(=O)c1ccc(-c2cccc(-c3c(-c4c(C#N)cccc4C#N)c4cc(F)ccc4n3S(=O)(=O)c3ccc(C(F)F)cc3)c2)c(Cl)c1 [8/8] | < 100 | < 100 |  |
| N#Cc1cccc(C#N)c1-c1c(-c2cccc(-c3cc(F)c(C(=O)O)cc3Cl)c2)n(S(=O)(=O)c2ccc(C(F)F)cc2)c2ccc(F)cc12 [11/65] | < 100 | < 100 |  |
| N#Cc1cccc(C#N)c1-c1c(-c2cccc(-c3ccc(C(=O)NCCS(=O)(=O)O)cc3Cl)c2)n(S(=O)(=O)c2ccc(C(F)F)cc2)c2ccc(F)cc12 [10/1] | < 100 | < 100 |  |
| COc1c(C(=O)O)ccc(-c2cccc(-c3c(-c4ccccc4C#N)c4cc(F)ccc4n3S(=O)(=O)c3ccc(C(F)F)cc3)c2)c1Cl [11/27] | < 100 | < 100 |  |
| N#Cc1cccnc1-c1c(-c2cccc(-c3ccc(C(=O)O)cc3Cl)c2)n(S(=O)(=O)c2ccc(C(F)F)cc2)c2ccc(F)cc12 [11/26] | < 100 | < 100 |  |
| N#Cc1nccnc1-c1c(-c2cccc(-c3cc(F)c(C(=O)O)cc3Cl)c2)n(S(=O)(=O)c2ccc(C(F)F)cc2)c2ccc(F)cc12 [11/11] | < 100 | < 100 |  |
| Cc1ccc(S(=O)(=O)n2c(-c3cccc(N4CC(C(=O)O)C4)c3)c(-c3ccsc3C#N)c3cc(C)ccc32)cc1 [3/46] | < 100 | < 100 | EC50 [1, 5]: < 100 nM |
| N#Cc1cccc(C#N)c1-c1c(-c2cccc(-c3ccc(C(=O)O)cc3Cl)c2)n(S(=O)(=O)C2CCC(F)(F)CC2)c2ccc(F)cc12 [11/63] | < 100 | < 100 |  |
| N#Cc1ccccc1-c1c(-c2cccc(-c3ccc(C(=O)O)cc3Cl)c2)n(S(=O)(=O)c2ccc(C(F)F)cc2)c2cnccc12 [11/49] | < 100 | < 100 |  |
| Cc1ccc(S(=O)(=O)n2c(-c3cccc(N4CC(C(=O)O)C4)c3)c(-c3ccsc3C#N)c3cc(F)ccc32)cc1 [3/32] | 100 to 1000 | < 100 | LBD-M2H Gal4α efficacy (value in brackets) [1]: 103%; EC50 ([1]; read-out: LBD-M2H Gal4α potency): 106 nM |
| Cc1ccc(S(=O)(=O)n2c(-c3cccc(C45CCC(C(=O)O)(CC4)CC5)c3)c(-c3ccsc3C#N)c3cc(F)ccc32)cc1 [3/64] | < 100 | < 100 |  |
| N#Cc1cccc(C#N)c1-c1c(-c2cccc(-c3ccc(C(=O)O)cc3F)c2)n(S(=O)(=O)c2ccc(C(F)F)cc2)c2ccc(F)cc12 [11/51] | < 100 | < 100 |  |
| CN(CCS(=O)(=O)O)C(=O)c1ccc(-c2cccc(-c3c(-c4c(C#N)cccc4C#N)c4cc(F)ccc4n3S(=O)(=O)c3ccc(C(F)F)cc3)c2)c(Cl)c1 [10/2] | < 100 | < 100 |  |
| O=C(O)c1ccc(-c2cccc(-c3c(-c4ccccc4C4COC4)c4cc(F)ccc4n3S(=O)(=O)c3ccc(C(F)F)cc3)c2)c(Cl)c1 [3/59] | < 100 | < 100 |  |
| N#Cc1cccc(C#N)c1-c1c(-c2cccc(-c3c(F)cc(CC(=O)O)cc3F)c2)n(S(=O)(=O)c2ccc(C(F)F)cc2)c2ccc(F)cc12 [3/73] | < 100 | < 100 |  |
| Cc1ccc(S(=O)(=O)n2c(-c3cccc(-c4ccc(C(=O)O)cc4Cl)c3)c(-c3ccsc3C#N)c3cc(F)ccc32)cc1 [3/48] | < 100 | < 100 | blood/plasma exposure (below LLOQ, LLOQ given) ([2]; time point 12 h): (1.2 ng/mL); liver exposure ([2]; time point 12 h): A (A: <300 nM) |
| N#Cc1cccc(C#N)c1-c1c(-c2cccc(-c3ccc(C(=O)NCC(=O)O)cc3Cl)c2)n(S(=O)(=O)c2ccc(C(F)F)cc2)c2ccc(F)cc12 [21/3] | < 100 | < 100 |  |
| N#Cc1ccccc1-c1c(-c2cccc(-c3ccc(C(=O)O)cc3Cl)c2)n(S(=O)(=O)c2ccc(C(F)F)cc2)c2ccc(F)cc12 [11/33] | < 100 | < 100 | FL-M2H Gal4α efficacy (value in brackets) (full length (FL) LXRα): 164%; EC50 (full length (FL) LXRα; read-out: FL-M2H Gal4α potency): 1.3 nM; FL-M2H Gal4β efficacy (value in brackets) (full length (FL) LXRβ): 130%; EC50 (full length (FL) LXRβ; read-out: FL-M2H Gal4β potency): 1.7 nM |
| Cc1ccc(S(=O)(=O)n2c(-c3cccc(N4CC(C(=O)O)C4)c3)c(-c3ccsc3C#N)c3cc(Cl)ccc32)cc1 [3/44] | < 100 | < 100 | EC50 [1, 5]: < 100 nM |
| Cc1ccc(S(=O)(=O)n2c(-c3cccc(-c4ccc(C(=O)O)cc4)c3)c(-c3ccsc3C#N)c3cc(F)ccc32)cc1C [23/2] | < 100 | < 100 | blood/plasma exposure ([2]; time point 4 h): B (B: 300 nM to ≤1 μM); liver exposure ([2]; time point 4 h): D (D: >3 μM); liver/blood ratio ([2]; time point 4 h): C (C: 10 to ≤30) |
| Cc1ccc(S(=O)(=O)n2c(-c3cccc(-c4ccc(C(=O)O)cc4)c3)c(-c3ccsc3C#N)c3cc(F)ccc32)cc1 [5/3] |  | < 100 | blood/plasma exposure ([2]; time point 4 h): C (C: 100 nM to <300 nM); liver exposure ([2]; time point 4 h): C (C: 1 μM to ≤3 μM); liver/blood ratio ([2]; time point 4 h): C (C: 10 to ≤30) |
| O=C(O)c1ccc(-c2cccc(-c3c(-c4ncccc4C(F)(F)F)c4cc(F)ccc4n3S(=O)(=O)c3ccc(C(F)F)cc3)c2)c(Cl)c1 [11/23] | < 100 | < 100 |  |
| N#Cc1cccc(C#N)c1-c1c(-c2cccc(-c3c(F)cc(C(=O)O)cc3F)c2)n(S(=O)(=O)c2ccc(C(F)F)cc2)c2ccc(F)cc12 [11/53] | < 100 | < 100 |  |
| N#Cc1cccc(C#N)c1-c1c(-c2cccc(-c3ccc(C(=O)O)cc3Cl)c2)n(S(=O)(=O)c2ccc(C(F)F)cc2)c2ccc(F)cc12 [11/12] | < 100 | < 100 |  |
| N#Cc1sccc1-c1c(-c2cccc(-c3ccc(C(=O)O)cc3Cl)c2)n(S(=O)(=O)c2ccc(C(F)(F)F)nc2)c2ccc(F)cc12 [11/16] | < 100 | < 100 |  |
| Cc1ccc(S(=O)(=O)n2c(-c3cccc(N4CC(C(=O)O)C4)c3)c(-c3ccsc3C#N)c3cc(F)c(Cl)cc32)cc1 [3/43] | 100 to 1000 | < 100 | EC50 [1, 5]: 100 to 1000 nM |
| N#Cc1cccc(C#N)c1-c1c(-c2cccc(-c3ccc(C(=O)O)cc3Cl)c2)n(S(=O)(=O)c2ccc(C(F)(F)F)nc2)c2ccc(F)cc12 [11/37] | < 100 | < 100 |  |
| Cc1ccc(S(=O)(=O)n2c(-c3cccc(N4CC(C(=O)O)C4)c3)c(-c3ccsc3C#N)c3cc(F)c(F)cc32)cc1 [3/42] | 100 to 1000 | < 100 | EC50 [1, 5]: 100 to 1000 nM |
